Test results: ChEMBL document CHEMBL1143069, “Methoxylation of 3',4'-aromatic side chains improves P-glycoprotein inhibitory and multidrug resistance reversal activities of 7,8-pyranocoumarin against cancer cells” (Bioorg Med Chem, 2008)
The source made the active and inactive calls. The calls are words filed in the database; no cut-off is given here.

Assays:
[1] = tested on: HepG2; assay: Increase in monoclonal antibody UIC2 binding to human Pgp in doxorubicin-resistant human HepG2 cells; format: cell-based
[2] = tested on: K562; assay: Inhibition of Pgp mediated Rh123 efflux in doxorubicin-resistant human K562 cells assessed as increase in cellular fluorescence of substrate at 10 uM; format: cell-based; parameters: scale not given: the % may be the effect or the level left
[3] = tested on: K562; assay: Inhibition of Pgp mediated Hoechst 33342 efflux in doxorubicin-resistant human K562 cells assessed as increase in cellular fluorescence of substrate at 10 uM; format: cell-based; parameters: scale not given: the % may be the effect or the level left
[4] = tested on: K562; assay: Inhibition of human Pgp-ATPase activity in doxorubicin-resistant K562 cells; format: cell-based
[5] = tested on: HepG2; assay: Inhibition of Pgp mediated Rh123 efflux in doxorubicin-resistant human HepG2 cells assessed as increase in cellular fluorescence of substrate at 10 uM; format: cell-based; parameters: scale not given: the % may be the effect or the level left
[6] = tested on: HepG2; assay: Inhibition of Pgp mediated Hoechst 33342 efflux in doxorubicin-resistant human HepG2 cells assessed as increase in cellular fluorescence of substrate at 10 uM; format: cell-based; parameters: scale not given: the % may be the effect or the level left
[7] = tested on: K562; assay: Growth inhibition of human K562 cells after 72 hrs by SRB assay; format: functional, cell-based; details: K562, 72 h
[8] = Growth inhibition of human KB3-1 cells after 72 hrs by MTT assay; format: functional, cell-based; details: KB 3-1, 72 h
[9] = Growth inhibition of human KB V1 cells after 72 hrs by MTT assay; format: functional, cell-based; details: KB-V1, 72 h
[10] = tested on: HepG2; assay: Growth inhibition of doxorubicin resistant human HepG2 cells after 72 hrs by MTT assay; format: functional, cell-based; details: HepG2, 72 h
[11] = tested on: K562; assay: Growth inhibition of doxorubicin-resistant human K562 cells after 72 hrs by SRB assay; format: functional, cell-based; details: K562, 72 h
[12] = tested on: HepG2; assay: Growth inhibition of human HepG2 cells after 72 hrs by MTT assay; format: functional, cell-based; details: HepG2, 72 h
[13] = tested on: K562; details: Homo sapiens
[14] = tested on: K562; details: Homo sapiens; remark: listed apart in the source
[15] = tested on: K562; details: Homo sapiens; remark: listed apart in the source
[16] = tested on: HepG2; assay: Effect on Pgp expression level in doxorubicin resistant human HepG2 cells at 4 uM after 72 hrs by Western blot; format: functional, cell-based
[17] = tested on: K562; assay: Effect on Pgp expression level in doxorubicin resistant human K562 cells at 4 uM after 72 hrs by Western blot; format: functional, cell-based
[18] = tested on: HepG2; assay: Inhibition of Pgp mediated Hoechst 33342 efflux in doxorubicin-resistant human HepG2 cells assessed as increase in cellular fluorescence of substrate at 5 uM; format: cell-based; parameters: scale not given: the % may be the effect or the level left
[19] = tested on: K562; assay: Inhibition of Pgp mediated Hoechst 33342 efflux in doxorubicin-resistant human K562 cells assessed as increase in cellular fluorescence of substrate at 5 uM; format: cell-based; parameters: scale not given: the % may be the effect or the level left
[20] = tested on: K562; assay: Effect on Pgp expression level in doxorubicin resistant human K562 cells at 20 uM after 72 hrs by Western blot; format: functional, cell-based
[21] = tested on: KB-V1; assay: Effect on Pgp expression level in human KB V1 cells at 20 uM after 72 hrs by Western blot; format: functional, cell-based
[22] = tested on: HepG2; assay: Effect on Pgp expression level in doxorubicin resistant human HepG2 cells at 20 uM after 72 hrs by Western blot; format: functional, cell-based
[23] = tested on: KB-V1; assay: Effect on Pgp expression level in human KB V1 cells at 4 uM after 72 hrs by Western blot; format: functional, cell-based
[24] = tested on: K562; assay: Effect on Pgp expression level in doxorubicin resistant human K562 cells at 8 uM after 72 hrs by Western blot; format: functional, cell-based
[25] = tested on: HepG2; assay: Effect on Pgp expression level in doxorubicin resistant human HepG2 cells at 8 uM after 72 hrs by Western blot; format: functional, cell-based

SMILES: CC1(C)Oc2ccc3ccc(=O)oc3c2C(OC(=O)/C=C/c2ccccc2)C1OC(=O)/C=C/c1ccccc1 (racemic)
- Activity [1]: inactive
- Activity [2]: 20%
- Activity [3]: 100%
- Activity [4]: Active
- Activity [5]: 50%
- Activity [6]: 100%

SMILES: COc1ccc(CC(N)C(=O)N[C@H]2[C@@H](O)[C@H](n3cnc4c(N(C)C)ncnc43)O[C@@H]2CO)cc1 (single isomer, unassigned) [PUROMYCIN]
- IC50 [7]: 0.22 µM
- IC50 [8]: 0.21 µM
- IC50 [9]: 79.3 µM
- IC50 [10]: 83.9 µM
- IC50 [11]: 26.8 µM
- IC50 [12]: 230 nM

SMILES: COc1ccc(/C=C/C(=O)OC2c3c(ccc4ccc(=O)oc34)OC(C)(C)C2OC(=O)/C=C/c2ccc(OC)cc2)cc1 (racemic)
- IC50 [7]: 67.6 µM
- IC50 [10]: 72.6 µM
- IC50 [11]: 81 µM
- IC50 [12]: 55200 nM

SMILES: CC(=O)[C@H]1CC[C@H]2[C@@H]3CCC4=CC(=O)CC[C@]4(C)[C@H]3CC[C@]12C
- Km [13]: 6.57 µM
- Km [14]: 9.97 µM

SMILES: CC(=O)O[C@H]1C(=O)[C@@]2(C)[C@H]([C@H](OC(=O)c3ccccc3)[C@]3(O)C[C@H](OC(=O)[C@H](O)[C@@H](NC(=O)c4ccccc4)c4ccccc4)C(C)=C1C3(C)C)[C@]1(OC(C)=O)CO[C@@H]1C[C@@H]2O [PACLITAXEL]
- IC50 [8]: 0.002 µM
- IC50 [9]: 8 µM
- IC50 [10]: 4.15 µM
- IC50 [11]: 4.14 µM
- IC50 [12]: 7 nM

SMILES: COc1cccc2c1C(=O)c1c(O)c3c(c(O)c1C2=O)C[C@@](O)(C(=O)CO)C[C@@H]3O[C@H]1C[C@H](N)[C@H](O)[C@H](C)O1 [DOXORUBICIN]
- IC50 [8]: 0.18 µM
- IC50 [9]: 32 µM

SMILES: COc1ccc(CCN(C)CCC[C@](C#N)(c2ccc(OC)c(OC)c2)C(C)C)cc1OC
- Km [15]: 0.89 µM
- Km [14]: 0.7 µM

SMILES: CC[C@]1(O)C[C@@H]2CN(CCc3c([nH]c4ccccc34)[C@@](C(=O)OC)(c3cc4c(cc3OC)N(C)[C@H]3[C@@](O)(C(=O)OC)[C@H](OC(C)=O)[C@]5(CC)C=CCN6CC[C@]43[C@@H]65)C2)C1 [VINBLASTINE]
- IC50 [7]: 0.00088 µM
- IC50 [8]: 0.00011 µM
- IC50 [9]: 1.04 µM
- IC50 [10]: 0.44 µM
- IC50 [11]: 0.17 µM
- IC50 [12]: 0.07 nM

SMILES: COc1ccc(/C=C/C(=O)OC2c3c(ccc4ccc(=O)oc34)OC(C)(C)C2OC(=O)/C=C/c2ccc(OC)c(OC)c2)cc1OC (racemic)
- IC50 [7]: 54.4 µM
- Activity [16]: inactive
- Activity [17]: inactive
- Activity [18]: 200%
- Activity [19]: 200%
- IC50 [8]: 61.7 µM
- IC50 [9]: 32.3 µM
- Activity [1]: Active
- Activity [20]: inactive
- Activity [21]: inactive
- Activity [4]: Active
- IC50 [10]: 76.3 µM
- Activity [22]: inactive
- IC50 [11]: 70 µM
- Activity [23]: inactive
- IC50 [12]: 54700 nM
- Activity [24]: inactive
- Activity [25]: inactive
